{
  "source": "patent EP0465716A1",
  "about": "“Optically active thiazetoquino-line-3-carboxylic acid compound, method for preparation thereof, and a pharmaceutical composition comprising the same” (priority 1990, dated 1992)",
  "key": {"[1]": {"test_system": "Klebsiella pneumoniae PCI-602", "experiment": "MIC, twofold agar dilution method (standard laboratory strain)", "format": "cell-based", "conditions": "Klebsiella pneumoniae, PCI602, 18 h", "description": "Minimum inhibitory concentrations (MIC) of test compounds were determined by the twofold agar dilution method (Chemotherapy, 29(1), 76(1981)). Overnight cultures in Mueller-Hinton broth were suspended by buffered saline gelatin. One loopful of the bacterial suspension (10⁶ or 10⁸ colony-forming units/ml) was incubated onto the plates containing test compounds. The plates were incubated for 18 hrs at 37 °C. The MIC was defined by the lowest concentration of the drug that inhibited visible growth of bacteria."}, "Male mice of ddY strain": {"test_system": "Male mice of ddY strain", "experiment": "Convulsion inducing activity in combination with fenbufen", "conditions": "thirty minutes after fenbufen 100 mg/kg orally", "method": "Male mice of ddY strain, 5 weeks old, were used. Fenbufen suspended in 0.5 % carboxymethylcellulose was administered orally at a dose of 100 mg/kg. After thirty minutes, test compounds suspended in 0.5 % carboxymethylcellulose were injected intraperitoneally (i.p.) at a dose of 100 mg/kg or 300 mg/kg."}},
  "note": "Where a name gives a salt, the structure may show the parent alone.",
  "data": [
    {"molecule": "O=C(O)c1cn(C2CC2)c2cc(N3CCNCC3)c(F)cc2c1=O", "note": "[Ref. Drug A, ciprofloxacin hydrochloride]", "values": [
      {"measurement": "MIC", "setting": "[1]", "result": 0.012, "unit": "µg/mL"},
      {"measurement": "Number of convulsion induced / Number of animals", "setting": "Male mice of ddY strain; 100 mg/kg (i.p.)", "result": "4 / 6"},
      {"measurement": "Number of convulsion induced / Number of animals", "setting": "Male mice of ddY strain; 300 mg/kg (i.p.)", "result": "6 / 6"}
    ]}
  ]
}
